In patent US8912200B2, “Alkynyl substituted pyrimidinyl-pyrroles active as kinases inhibitors” (Nerviano Medical Sciences S.R.L., priority 2011, dated 2014):

Assays:
JAK2 kinase domain = molecular target: T1, JAK2 kinase domain (Homo sapiens, UniProt O60674); test: Biochemical assay for inhibitors of JAK kinase activity (JAK2, 33P-γ-ATP/dowex resin); conditions: JAK2 kinase domain 1 nM, 60 μM ATP
T1 construct: commercially available JAK2 kinase domain; purchased Invitrogen, Eugene, Oreg
From the text: Biochemical Assay for Inhibitors of JAK Kinase Activity
(§1) Specific JAK2, JAK1 or JAK3 peptide substrates are trans-phosphorylated by JAK kinases in the presence of ATP traced with 33P-γ-ATP. At the end of the phosphorylation reaction, the unreacted ATP, cold and radioactive, is captured by an excess of dowex ion exchange resin that eventually settles by gravity to the bottom of the reaction plate. The supernatant is subsequently withdrawn and transferred into a counting plate that is then evaluated by β-counting.
500 g of wet resin (SIGMA, custom prepared resin DOWEX 1×8 200-400 mesh, 2.5 Kg) are weighed out and diluted 2 to 1 in 150 mM sodium formate, pH 3.00. The resin is allowed to settle down overnight and then the supernatant is discarded. After three washes as above over a couple of days, the resin is allowed to settle and two volumes (with respect to the resin volume) of 150 mM sodium formate buffer are added.
Kinase buffer was composed of 50 mM HEPES pH 7.5 containing 10 mM MgCl2, 2.5 mM DTT, 10 μM Na3VO4 and 0.2 mg/mL BSA.
JAK2 Specific Assay Conditions
The JAK2 kinase assay was run with a final enzyme concentration of 1 nM, in the presence of 60 μM ATP, 3 nM 33P-γ-ATP and 64 μM of substrate BioDBn*306 (Aminoacid sequence: LPLDKDYYVVREPGQ—SEQ ID NO: 1). The peptidic substrate was purchased from American Peptide Company (Sunnyvale, Calif.).
(§2) For IC50 determination, test compounds are received as a 1 mM solution in 100% DMSO, distributed into 96 well plates: compounds are then plated into the first column of a microtiter plate (A1 to G1), 100 μL/well.
(§3) An automated station for serial dilutions (Biomek FX, Beckman) is used for producing 1:3 dilutions in 100% DMSO, from line A1 to A10, and for all the compounds in the column. Moreover, 4-5 copies of daughter plates are prepared by reformatting 5 μL of this first set of 100% DMSO dilution plates into 384 deep well-plates: one of these plates with the serial dilutions of test compounds will be thawed the day of the experiments, reconstituted at a 3× concentration with water and used in the IC50 determination assays. In a standard experiment, the highest concentration (3×) of all compounds is 30 μM, while the lowest one is 1.5 nM. Each 384 well-plate will contain at least one curve of the standard inhibitor staurosporine and reference wells (total enzyme activity vs. no enzymatic activity) for the Z′ and signal to background evaluation.
384-well plates, V bottom (test plates) are prepared with 5 μL of the compound dilution (3×) and then placed onto a PlateTrak 12 robotized station (Perkin Elmer; the robot has one 384-tip pipetting head for starting the assay plus one 96-tip head for dispensing the resin) together with one reservoir for the Enzyme mix (3×) and one for the ATP mix (3×). At the start of the run, the robot aspirates 5 μL of ATP mix, makes an air gap inside the tips (3 μl) and aspirates 5 μL of JAK2 mix. The following dispensation into the plates plus 3 cycles of mixing, done by the robot itself, starts the kinase reaction. At this point, the correct concentrations are restored for all the reagents. The robot incubates the plates for 60 minutes at room temperature, and then stops the reaction by pipetting 60 μL of dowex resin suspension into the reaction mix. In order to avoid tip clogging, wide bore tips are used to dispense the resin suspension. Three cycles of mixing are done immediately after the addition of the resin. Another mixing cycle is performed after all the plates are stopped, this time using normal tips: the plates are then allowed to rest for about one hour in order to allow resin sedimentation. At this point, 27 μL of the supernatant are transferred into 384-Optiplates (Perkin-Elmer), with 50 μL of Microscint 40 (Perkin-Elmer); after 5 min of orbital shaking the plates are read on a Perkin-Elmer Top Count radioactivity counter. […]

Lyn full length = molecular target: T2, Lyn full length (Homo sapiens, UniProt P07948); test: Biochemical assay for inhibitors of Lyn (Src family) kinase activity; conditions: Lyn full length 1 nM, 25 μM ATP
T2 construct: The assay has been performed using Lyn full length
From the text: Biochemical Assay for Inhibitors of Lck and Lyn (Src Family) Kinases Activity
as §1, with “Lck and Lyn” for “JAK2, JAK1 or JAK3 peptide”, “Lck and Lyn” for “JAK”
Lyn Specific Assay Conditions
The assay has been performed using Lyn full length (accession number P07948 of UniProtKB/Swiss-Prot database).
Kinase buffer was composed of 50 mM HEPES pH 7.5 containing 3 mM MgCl2, 1 mM DTT, 3 μM Na3VO4, and 0.2 mg/mL BSA.
The Lyn kinase assay was run with a final enzyme concentration of 1 nM, in the presence of 25 μM ATP, 1.5 nM 33P-γ-ATP and 250 μM of substrate ABI 1 (Aminoacid sequence: EAIYAAPFAKKK—SEQ ID NO: 3). The peptidic substrate was purchased from American Peptide Company (Sunnyvale, Calif.).
as §2, §3
384-well plates, V bottom (test plates) are prepared with 5 μL of the compound dilution (3×) and then placed onto a PlateTrak 12 robotized station (Perkin Elmer; the robot has one 384-tip pipetting head for starting the assay plus one 96-tip head for dispensing the resin) together with one reservoir for the Enzyme mix (3×) and one for the ATP mix (3×). At the start of the run, the robot aspirates 5 μL of ATP mix, makes an air gap inside the tips (3 μl) and aspirates 5 μL of JAK2 mix. The following dispensation into the plates plus 3 cycles of mixing, done by the robot itself, starts the kinase reaction. At this point, the correct concentrations are restored for all the reagents. The robot incubates the plates for 60 minutes at room temperature, and then stops the reaction by pipetting 60 μL of dowex resin suspension into the reaction mix. In order to avoid tip clogging, wide bore tips are used to dispense the resin suspension. Three cycles of mixing are done immediately after the addition of the resin. Another mixing cycle is performed after all the plates are stopped, this time using normal tips: the plates are then allowed to rest for about one hour in order to allow resin sedimentation. At this point, 27 μL of the supernatant are transferred into 384-Optiplates (Perkin-Elmer), with 50 μL of Microscint 40 (Perkin-Elmer); after 5 min of orbital shaking the plates are read on a Perkin-Elmer Top Count radioactivity counter.
Data are analyzed by an internally customized version of the SW package “Assay Explorer” that provides sigmoidal fitting of the ten-dilutions curves for IC50 determination in the secondary assays/hit confirmation routines.

[1] = tested on: JAK2 dependent human megakaryoblastic leukemia cell line SET-2; test: Cell proliferation assay (CellTiter-Glo, 72 hours); type: cell-based; conditions: Homo sapiens, SET-2 cells
Procedure: The JAK2 dependent human megakaryoblastic leukemia cell line SET-2 (DSMZ, Braunschweig GERMANY) and the JAK2 independent human chronic myelogenous leukaemia cell line K562 (ECACC, Wiltshire, UK) were cultured in RPMI-1640 medium-Glutamax (Gibco BRL, Gaithesburg, Md., USA), supplemented with 10% fetal bovine serum (FBS) at 37° C. and 5% CO2.
Cell Proliferation Assay:
Approximately 5×10^3 cells were plated into 384 microtiter plate wells in 50 μL of growth media with different concentrations of inhibitors. The cells were incubated at 37° C. and 5% CO2 for 72 hours, then the plates were processed using CellTiter-Glo assay (Promega, Madison, Wis., USA) following the manufacturer's instruction. Briefly 25 μL/well reagent solution is added to each well and after 5 minutes shaking the micro-plates are read by Envision luminometer (PerkinElmer, Waltham, Mass., USA).
Data are analyzed by Symix Assay Explorer software (Symix Technologies Inc.) that provides sigmoidal fitting algorithm of the 8 points dilutions curves for IC50 determination.

T1 sequence (O60674 849-1124 limits assumed): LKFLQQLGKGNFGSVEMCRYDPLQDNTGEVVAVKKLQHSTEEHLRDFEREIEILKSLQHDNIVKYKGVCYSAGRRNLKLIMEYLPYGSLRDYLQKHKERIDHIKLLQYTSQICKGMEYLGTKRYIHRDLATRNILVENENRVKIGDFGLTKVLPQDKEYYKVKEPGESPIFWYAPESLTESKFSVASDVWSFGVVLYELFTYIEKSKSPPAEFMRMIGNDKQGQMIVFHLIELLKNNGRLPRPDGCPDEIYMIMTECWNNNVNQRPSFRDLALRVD
T2 sequence (P07948 whole entry): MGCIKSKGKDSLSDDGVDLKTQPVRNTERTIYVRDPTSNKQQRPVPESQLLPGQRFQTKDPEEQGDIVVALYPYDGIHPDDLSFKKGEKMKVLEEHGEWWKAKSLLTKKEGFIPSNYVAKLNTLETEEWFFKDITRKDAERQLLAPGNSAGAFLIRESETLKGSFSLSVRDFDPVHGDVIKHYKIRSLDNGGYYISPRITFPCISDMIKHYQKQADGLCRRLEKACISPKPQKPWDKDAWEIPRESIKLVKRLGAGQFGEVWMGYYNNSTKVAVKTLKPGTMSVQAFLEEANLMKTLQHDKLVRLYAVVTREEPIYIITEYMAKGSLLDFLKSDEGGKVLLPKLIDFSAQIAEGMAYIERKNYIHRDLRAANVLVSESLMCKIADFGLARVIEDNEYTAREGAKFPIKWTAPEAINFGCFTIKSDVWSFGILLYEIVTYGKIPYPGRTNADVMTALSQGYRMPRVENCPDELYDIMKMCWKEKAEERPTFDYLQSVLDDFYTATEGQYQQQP

SMILES	IC50 (JAK2 kinase domain)	IC50 (Lyn full length)	IC50 [1]
Cc1ccc(Cl)cc1-c1[nH]c(-c2nc(N)ncc2C#Cc2cccc(O)c2)cc1C(N)=O [compound 2, 5-{2-Amino-5-[(3-hydroxyphenyl)ethynyl]pyrimidin-4-yl}-2-(5-chloro-2-methylphenyl)-1H-pyrrole-3-carboxamide]	2 nM	6 nM	520 nM
COc1ccc(N)cc1C#Cc1cnc(N)nc1-c1cc(C(N)=O)c(-c2cc(Cl)ccc2C)[nH]1 [compound 9, 5-{2-Amino-5-[(5-amino-2-methoxyphenyl)ethynyl]pyrimidin-4-yl}-2-(5-chloro-2-methylphenyl)-1H-pyrrole-3-carboxamide]	1 nM	10 nM	340 nM
Cc1ccc(Cl)cc1-c1[nH]c(-c2ccnc(N)n2)c(C#Cc2ccc(N3CCNCC3)cc2)c1C(N)=O [compound 99, 5-(2-Aminopyrimidin-4-yl)-2-(5-chloro-2-methylphenyl)-4-{[4-(piperazin-1-yl)phenyl]ethynyl}-1H-pyrrole-3-carboxamide]	2 nM	26 nM	410 nM
Cc1ccc(Cl)cc1-c1[nH]c(-c2nc(N)ncc2C#Cc2ccc(N3CCC(N4CCN(C)CC4)CC3)cc2)cc1C(N)=O [compound 25, 5-[2-Amino-5-({4-[4-(4-methylpiperazin-1-yl)piperidin-1-yl]phenyl}ethynyl)pyrimidin-4-yl]-2-(5-chloro-2-methylphenyl)-1H-pyrrole-3-carboxamide]	2 nM	10 nM	170 nM
COc1ccc(NC2CCN(C)CC2)cc1C#Cc1cnc(N)nc1-c1cc(C(N)=O)c(-c2cc(Cl)ccc2C)[nH]1 [compound 22, 5-[2-Amino-5-({2-methoxy-5-[(1-methylpiperidin-4-yl)amino]phenyl}ethynyl)pyrimidin-4-yl]-2-(5-chloro-2-methylphenyl)-1H-pyrrole-3-carboxamide]	2 nM	9 nM	430 nM
Cc1ccc(Cl)cc1-c1[nH]c(-c2nc(N)ncc2C#Cc2cccc(NC3CCOCC3)c2)cc1C(N)=O [compound 13, 5-(2-Amino-5-{[3-(tetrahydro-2H-pyran-4-ylamino)phenyl]ethynyl}pyrimidin-4-yl)-2-(5-chloro-2-methylphenyl)-1H-pyrrole-3-carboxamide]	4 nM	8 nM	
CCc1ccc(Cl)cc1-c1[nH]c(-c2ccnc(N)n2)c(C#Cc2cccc(OC3CCN(C)CC3)c2)c1C(N)=O [compound 102, 5-(2-Aminopyrimidin-4-yl)-2-(5-chloro-2-ethylphenyl)-4-({3-[(1-methylpiperidin-4-yl)oxy]phenyl}ethynyl)-1H-pyrrole-3-carboxamide]	1 nM	6 nM	240 nM
Cc1ccc(Cl)cc1-c1[nH]c(-c2ccnc(N)n2)c(C#Cc2cc(N3CCN(C)CC3)ccc2F)c1C(N)=O [compound 93, 5-(2-Aminopyrimidin-4-yl)-2-(5-chloro-2-methylphenyl)-4-{[2-fluoro-5-(4-methylpiperazin-1-yl)phenyl]ethynyl}-1H-pyrrole-3-carboxamide]	5 nM	93 nM	230 nM
Cc1ccc(Cl)cc1-c1[nH]c(-c2ccnc(N)n2)c(C#Cc2ccccc2)c1C(N)=O [compound 69, 5-(2-Amino-pyrimidin-4-yl)-2-(5-chloro-2-methyl-phenyl)-4-phenylethynyl-1H-pyrrole-3-carboxamide]	8 nM	20 nM	1450 nM
Cc1ccc(Cl)cc1-c1[nH]c(-c2ccnc(N)n2)c(C#Cc2ccc(OC3CCN(C)CC3)cc2)c1C(N)=O [compound 92, 5-(2-Aminopyrimidin-4-yl)-2-(5-chloro-2-methylphenyl)-4-({4-[(1-methylpiperidin-4-yl)oxy]phenyl}ethynyl)-1H-pyrrole-3-carboxamide]	5 nM	39 nM	220 nM
COc1ccc(N2CCN(C)CC2)cc1C#Cc1c(-c2ccnc(N)n2)[nH]c(-c2cc(Cl)ccc2C)c1C(N)=O [compound 86, 5-(2-Aminopyrimidin-4-yl)-2-(5-chloro-2-methylphenyl)-4-{[2-methoxy-5-(4-methylpiperazin-1-yl)phenyl]ethynyl}-1H-pyrrole-3-carboxamide]	1 nM	1 nM	210 nM
Cc1ccc(Cl)cc1-c1[nH]c(-c2nc(N)ncc2C#Cc2cccc(NCCO)c2)cc1C(N)=O [compound 15, 5-[2-Amino-5-({3-[(2-hydroxyethyl)amino]phenyl}ethynyl)pyrimidin-4-yl]-2-(5-chloro-2-methylphenyl)-1H-pyrrole-3-carboxamide]	2 nM	5 nM	240 nM
Cc1ccc(Cl)cc1-c1[nH]c(-c2ccnc(N)n2)c(C#Cc2ccccc2NC2CCN(C)CC2)c1C(N)=O [compound 94, 5-(2-Aminopyrimidin-4-yl)-2-(5-chloro-2-methylphenyl)-4-({2-[(1-methylpiperidin-4-yl)amino]phenyl}ethynyl)-1H-pyrrole-3-carboxamide]	32 nM	661 nM	290 nM
